Drawing on patent US10793575B2, “Oxoisoquinoline derivatives” (CARNA BIOSCIENCES, INC., priority 2016, dated 2020), this text covers IC50 for 18 compounds.

This experiment has as its system OCI-Ly10 cells. As to the kind of experiment: Proliferation-Inhibitory Test Against Diffuse Large-Cell B-Cell Lymphoma OCI-Ly10 Strain. The format is cell-based. The settings on record: Homo sapiens, 96 hours, alamarBlue. On the procedure:
OCI-Ly10 cells were cultured in IMDM medium (Iscove's Modified Dulbecco's Medium, Manufactured by Thermo Fisher Scientific Inc., hereinafter “medium”) containing 20% Fetal bovine serum and 1% penicillin-streptomycin (Nacalai Tesque, Inc.) in a 5% CO2 incubator. OCI-Ly10 cells were seeded to 96-well plate (20000 cells/well), compounds diluted with medium were added with final concentrations of 0.9 nM to 30000 nM (Final DMSO concentration, 0.3%), incubated for 96 hours and alamorBlue reagent (Thermo Fisher Scientific Inc.) was added.
In general terms: Alamar Blue is a resazurin reagent that responds to reducing activity.

For the compound `Cn1ccc(-c2cc3c(-c4cccc(-n5ccc6cc(C7CC7)cc(F)c6c5=O)c4CO)nc(N)nc3[nH]2)n1` [Example 78, 2-{3-[2-amino-6-(1-methyl-1H-pyrazol-3-yl)-7H-pyrrolo[2,3-d]pyrimidin-4-yl]-2-(hydroxymethyl)phenyl}-6-cyclopropyl-8-fluoroisoquinolin-1(2H)-one], the IC50 (in general, the point on the concentration scale where inhibition reaches its midpoint) was 50 nM.

In the case of `CC1(C)CCCN(Cc2ccc(-c3cc4c(-c5cccc(-n6ccc7cc(C8CC8)cc(F)c7c6=O)c5CO)nc(N)nc4[nH]3)cc2)C1` [Example 80, 2-[3-(2-amino-6-{4-[(3,3-dimethylpiperidin-1-yl)methyl]phenyl}-7H-pyrrolo[2,3-d]pyrimidin-4-yl)-2-(hydroxymethyl)phenyl]-6-cyclopropyl-8-fluoroisoquinolin-1(2H)-one], the midpoint of inhibition, the IC50, lay at 70 nM.

Compound `Nc1nc(-c2cccc(-n3ccc4cc(C5CC5)cc(F)c4c3=O)c2CO)c2cc(C3=CCSCC3)[nH]c2n1` [Example 82, 2-{3-[2-amino-6-(3,6-dihydro-2H-thiopyran-4-yl)-7H-pyrrolo[2,3-d]pyrimidin-4-yl]-2-(hydroxymethyl)phenyl}-6-cyclopropyl-8-fluoroisoquinolin-1(2H)-one] displayed an IC50 of 24 nM.

In the case of `COCCNc1cncc(-c2cc3c(-c4cccc(-n5ccc6cc(C7CC7)cc(F)c6c5=O)c4CO)nc(N)nc3[nH]2)c1` [Example 60, 2-[3-(2-amino-6-{5-[(2-methoxyethyl)amino]pyridin-3-yl}-7H-pyrrolo[2,3-d]pyrimidin-4-yl)-2-(hydroxymethyl)phenyl}-6-cyclopropyl-8-fluoroisoquinolin-1(2H)-one], the IC50 was 64 nM.

In turn, `CN(C)c1ccc(-c2cc3c(-c4cccc(-n5ccc6cc(C7CC7)cc(F)c6c5=O)c4CO)nc(N)nc3[nH]2)cn1` [Example 59, 2-(3-{2-amino-6-[6-(dimethylamino)pyridin-3-yl]-7H-pyrrolo[2,3-d]pyrimidin-4-yl}-2-(hydroxymethyl)phenyl)-6-cyclopropyl-8-fluoroisoquinolin-1(2H)-one] came in with an IC50 of 63 nM.

Turning to `CC(C)S(=O)(=O)N1CC=C(c2cc3c(-c4cccc(-n5ccc6cc(C7CC7)cc(F)c6c5=O)c4CO)nc(N)nc3[nH]2)CC1` [Example 90, 2-(3-{2-amino-6-[1-(isopropylsulfonyl)-1,2,3,6-tetrahydropyridin-4-yl]-7H-pyrrolo[2,3-d]pyrimidin-4-yl}-2-(hydroxymethyl)phenyl)-6-cyclopropyl-8-fluoroisoquinolin-1(2H)-one], the concentration for half-maximal inhibition (IC50) worked out at 13 nM.

Turning to `CC(=O)N1CCN(Cc2ccc(-c3cc4c(-c5cccc(-n6ccc7cc(C8CC8)cc(F)c7c6=O)c5CO)nc(N)nc4[nH]3)cc2)CC1` [Example 75, 2-[3-(6-{4-[(4-acetylpiperazin-1-yl)methyl]phenyl}-2-amino-7H-pyrrolo[2,3-d]pyrimidin-4-yl)-2-(hydroxymethyl)phenyl]-6-cyclopropyl-8-fluoroisoquinolin-1(2H)-one], 10 nM corresponded to half-maximal inhibition (IC50). The IC50 values of the last two compounds are within 1.5-fold of each other.

The compound `Nc1nc(-c2cccc(-n3ccc4cc(C5CC5)cc(F)c4c3=O)c2CO)c2cc(-c3ccc(CN4CCSC4)cc3)[nH]c2n1` [Example 67, 2-(3-{2-amino-6-[4-(thiazolidin-3-ylmethyl)phenyl]-7H-pyrrolo[2,3-d]pyrimidin-4-yl)-2-(hydroxymethyl)phenyl}-6-cyclopropyl-8-fluoroisoquinolin-1(2H)-one] registered an IC50 of 82 nM.

Take `CC(C)n1cc(-c2cc3c(-c4cccc(-n5ccc6cc(C7CC7)cc(F)c6c5=O)c4CO)nc(N)nc3[nH]2)cn1` [Example 63, 2-{3-[2-amino-6-(1-isopropyl-1H-pyrazol-4-yl)-7H-pyrrolo[2,3-d]pyrimidin-4-yl]-2-(hydroxymethyl)phenyl}-6-cyclopropyl-8-fluoroisoquinolin-1(2H)-one]: the IC50 is 16 nM. This IC50 lies about 5.1-fold lower than the previous one.

Turning to `CCn1cc(-c2cc3c(-c4cccc(-n5ccc6cc(C7CC7)cc(F)c6c5=O)c4CO)nc(N)nc3[nH]2)cn1` [Example 62, 2-{3-[2-amino-6-(1-ethyl-1H-pyrazol-4-yl)-7H-pyrrolo[2,3-d]pyrimidin-4-yl]-2-(hydroxymethyl)phenyl}-6-cyclopropyl-8-fluoroisoquinolin-1(2H)-one], the midpoint of inhibition, the IC50, lay at 15 nM.

As for `COc1cc(-c2cc3c(-c4cccc(-n5ccc6cc(C7CC7)cc(F)c6c5=O)c4CO)nc(N)nc3[nH]2)ccn1` [Example 49, 2-{3-[2-amino-6-(2-methoxypyridin-4-yl)-7H-pyrrolo[2,3-d]pyrimidin-4-yl]-2-(hydroxymethyl)phenyl}-6-cyclopropyl-8-fluoroisoquinolin-1(2H)-one], half-maximal inhibition (IC50) required 88 nM.

`Nc1nc(-c2cccc(-n3ccc4cc(C5CC5)cc(F)c4c3=O)c2CO)c2cc(-c3ccc(CN4CCC(F)(F)CC4)cc3)[nH]c2n1` [Example 77, 2-[3-(2-amino-6-{4-[(4,4-difluoropiperidin-1-yl)methyl]phenyl}-7H-pyrrolo[2,3-d]pyrimidin-4-yl)-2-(hydroxymethyl)phenyl]-6-cyclopropyl-8-fluoroisoquinolin-1(2H)-one] registered a concentration for half-maximal inhibition (IC50) of 62 nM.

On to `CC(C)(C)n1cc(-c2cc3c(-c4cccc(-n5ccc6cc(C7CC7)cc(F)c6c5=O)c4CO)nc(N)nc3[nH]2)cn1` [Example 72, 2-(3-{2-amino-6-[1-(tert-butyl)-1H-pyrazol-4-yl]-7H-pyrrolo[2,3-d]pyrimidin-4-yl}-2-(hydroxymethyl)phenyl)-6-cyclopropyl-8-fluoroisoquinolin-1(2H)-one], for which the half-maximal inhibitory concentration (IC50) is 127 nM.

In turn, `Nc1nc(-c2cccc(-n3ccc4cc(C5CC5)cc(F)c4c3=O)c2CO)c2cc(-c3ccc(N4CCOCC4)nc3)[nH]c2n1` [Example 48, 2-{3-[2-amino-6-(6-morpholinopyridin-3-yl)-7H-pyrrolo[2,3-d]pyrimidin-4-yl]-2-(hydroxymethyl)phenyl}-6-cyclopropyl-8-fluoroisoquinolin-1(2H)-one] yielded an IC50 of 54 nM.

Compound `Nc1nc(-c2cccc(-n3ccc4cc(C5CC5)cc(F)c4c3=O)c2CO)c2cc(-c3cc(F)cc(F)c3)[nH]c2n1` [Example 44, 2-{3-[2-amino-6-(3,5-difluorophenyl)-7H-pyrrolo[2,3-d]pyrimidin-4-yl]-2-(hydroxymethyl)phenyl}-6-cyclopropyl-8-fluoroisoquinolin-1(2H)-one] displayed a half-maximal inhibitory concentration (IC50) of 885 nM.

Regarding `Nc1nc(-c2cccc(-n3ccc4cc(C5CC5)cc(F)c4c3=O)c2CO)c2cc(-c3ccc(F)cn3)[nH]c2n1` [Example 45, 2-{3-[2-amino-6-(5-fluoropyridin-2-yl)-7H-pyrrolo[2,3-d]pyrimidin-4-yl]-2-(hydroxymethyl)phenyl}-6-cyclopropyl-8-fluoroisoquinolin-1(2H)-one], the IC50 was 134 nM.

Consider `COC1CCN(Cc2ccc(-c3cc4c(-c5cccc(-n6ccc7cc(C8CC8)cc(F)c7c6=O)c5CO)nc(N)nc4[nH]3)cc2)CC1` [Example 74, 2-[3-(2-amino-6-{4-[(4-methoxypiperidin-1-yl)methyl]phenyl}-7H-pyrrolo[2,3-d]pyrimidin-4-yl)-2-(hydroxymethyl)phenyl]-6-cyclopropyl-8-fluoroisoquinolin-1(2H)-one], for which the concentration for half-maximal inhibition (IC50) came to 13 nM.

Turning to `Nc1nc(-c2cccc(-n3ccc4cc(C5CC5)cc(F)c4c3=O)c2CO)c2cc(C3=CCN(C(=O)N4CCOCC4)CC3)[nH]c2n1` [Example 70, 2-(3-{2-amino-6-[1-(morpholine-4-carbonyl)-1,2,3,6-tetrahydropyridin-4-yl]-7H-pyrrolo[2,3-d]pyrimidin-4-yl}-2-(hydroxymethyl)phenyl)-6-cyclopropyl-8-fluoroisoquinolin-1(2H)-one], inhibition was half-maximal at 4 nM (IC50).
